Reference: patent US7166622B2, “Substituted phenylsulfonamide inhibitors of beta amyloid production” (Wyeth, priority 2002, dated 2007)
Values joined by “and” are separate entries in the source; they are usually repeats but may differ in a detail not shown here. Equal values may be shown once. Read-outs that look alike come from different tables or passages of the source.

Legend:
beta amyloid production = experiment: Repressor Release Assay (RRA); type: cell-based; conditions: for fold induction at 20 µg/mL / fold induction at 10 µg/mL: read-out: APPI Fold Increase; for APPI % of Example #98: relative to Example 98
Procedure, shortened: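 Read-out is luciferase luminescence (RLU) after 36-48 h duplicate compound exposure of transfected CHO-K1 cells. These cells carry transiently introduced APP-lacI and pRSVO-luc DNA. Diluent control was 25 mM Hepes/1% DMSO; toxicity recorded as binary score (1 non-toxic, 0 toxic).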

CHO-K1 cells = experiment: Toxicity in RRA (loss of luciferase signal); conditions: toxicity = loss of signal (<0.75 fold increase)
Method: The beta amyloid inhibitory activity of the compounds of the present invention was determined using the Repressor Release Assay (RRA).
“Fold Increase” refers to the amount of luciferase activity (measured in relative light units) over diluent control. “SEM” refers to the standard error of the mean for fold increase.

[1] = Conc 20 μg/ml, luciferase activity over diluent control
[2] = Conc 10 μg/ml, luciferase activity over diluent control
[3] = Conc 20 μg/ml, luciferase activity (RLU) over diluent control
[4] = Conc 20 μg/ml, 1=non-toxic, 0=toxic

| Compound | fold induction at 20 µg/mL (beta amyloid production; [1]) | (%)APPI Toxicity (CHO-K1 cells; Conc 20 μg/ml) | fold induction at 10 µg/mL (beta amyloid production; [2]) | (%)APPI Toxicity (CHO-K1 cells; Conc 10 μg/ml) | further results |
| --- | --- | --- | --- | --- | --- |
| CC[C@@H](C)[C@H](CO)NS(=O)(=O)c1ccc(Br)cc1 [Example 33, 4-Bromo-N-[(1R,2R)-1-(hydroxymethyl)-2-methylbutyl]benzenesulfonamide] | 3.9 | 1 (1=non-toxic) |  |  |  |
| O=S(=O)(N[C@H](CO)Cc1cc2ccccc2[nH]1)c1ccc(Br)cc1 [Example 19, 4-bromo-N-[(1S)-2-hydroxy-1-(1H-indol-2-ylmethyl)ethyl]benzenesulfonamide] | 1.6 | 1 (1=non-toxic) |  |  |  |
| C/C=C(\C)C(O)[C@@H](NS(=O)(=O)c1ccc(Br)cc1)[C@@H](C)CC (stereo partly drawn) [Example 159, 4-bromo-N-{(1S,3E)-2-hydroxy-3-methyl-1-[(1S)-1-methylpropyl]-3-pentenyl}benzenesulfonamide] |  |  | 2.11 | 1 (1=non-toxic) |  |
| CCCCCC[C@H](CC)[C@@H](CO)NS(=O)(=O)c1ccc(Cl)cc1 [Example 88, 4-Chloro-N-[(1 S,2S)-2-ethyl-1-(hydroxymethyl)octyl]benzenesulfonamide] |  |  |  |  | fold induction at 20 µg/mL (beta amyloid production; [3]): 6.4; (%)APPI Toxicity (CHO-K1 cells; [4]): 1 (1=non-toxic) |
| CCCCC(CO)NS(=O)(=O)c1ccc(Br)cc1 (centres unmarked) [Example 99, 4-bromo-N-[1-(hydroxymethyl)pentyl]benzenesulfonamide] | 1.7 | 1 (1=non-toxic) |  |  |  |
| CC[C@H](C)[C@H](NS(=O)(=O)c1ccc(Br)cc1)C(O)(c1cccc2ccccc12)c1cccc2ccccc12 [Example 222, 4-bromo-N-((1S,2S)-1-{hydroxy[di(1-naphthyl)]methyl}-2-methylbutyl) benzenesulfonamide] |  |  |  | 1 (1=non-toxic) | APPI Fold Increase (beta amyloid production; [2]): 1.59 fold; APPI % of Example #98 (beta amyloid production; Conc 10 μg/ml): 54.46% |
| C[C@@H](NS(=O)(=O)c1ccc(Cl)cc1)[C@@H](O)c1ccccc1 [Example 93, 4-chloro-N-[(1R,2S)-2-hydroxy-1-methyl-2-phenylethyl]benzenesulfonamide] | 1.5 | 1 (1=non-toxic) |  |  |  |
| 3,4-dibromo-N-[(11S)-1-(hydroxymethyl)-2,2-dimethylpropyl]benzenesulfonamide [Example 29] |  | 1 (1=non-toxic) |  |  | APPI Fold Increase (beta amyloid production; [1]): 2.1 fold; APPI % of Example #98 (beta amyloid production; Conc 20 μg/ml): 49.5% |
| CC[C@H](C)[C@H](NS(=O)(=O)c1cccc(Cl)c1)C(O)C(C)(C)C (stereo partly drawn) [Example 191, 3-chloro-N-{(1S)-2-hydroxy-3,3-dimethyl-1-[(1S)-1-methylpropyl]butyl}benzenesulfonamide] |  |  | 2.42 | 1 (1=non-toxic) |  |
| N-{(1S)-2-allyl-2-hydroxy 1-[(1S)-1-methylpropyl]-4-pentenyl}-4-bromo benzenesulfonamide [Example 216] |  |  |  | 1 (1=non-toxic) | APPI Fold Increase (beta amyloid production; [2]): 1.58 fold; APPI % of Example #98 (beta amyloid production; Conc 10 μg/ml): 72.76% |
| CC[C@H](C)[C@H](NS(=O)(=O)c1ccc(F)cc1)C(O)C=C(C)C (stereo partly drawn) [Example 137, 4-fluoro-N-{(1S)-2-hydroxy-4-methyl 1-[(1S)-1-methylpropyl]-3-pentenyl}benzenesulfonamide] |  |  | 1.61 | 1 (1=non-toxic) |  |
| CCC[C@H](C)[C@@H](CO)NS(=O)(=O)c1ccc(Cl)cc1 [Example 54, 4-chloro-N-[(1S,2S)-1-(hydroxymethyl)-2-methylpentyl]benzenesulfonamide] |  |  |  |  | fold induction at 20 µg/mL (beta amyloid production; [3]): 5; (%)APPI Toxicity (CHO-K1 cells; [4]): 1 (1=non-toxic) |
| C=C(C)C(O)[C@@H](NS(=O)(=O)c1ccc(F)cc1)[C@@H](C)CC (stereo partly drawn) [Example 138, 4-fluoro-N-{(1S)-2-hydroxy-3-methyl-1-[(1S)-1-methylpropyl]-3-butenyl}benzenesulfonamide] |  |  | 1.57 | 1 (1=non-toxic) |  |
| CC(c1ccccc1)C(CO)NS(=O)(=O)c1ccc(Cl)cc1 (centres unmarked) [Example 38, 4-chloro-N-[1-(hydroxymethyl)-2-phenylpropyl]benzenesulfonamide] | 3.3 | 1 (1=non-toxic) |  |  |  |
| CC[C@H](C)[C@@H](CO)NS(=O)(=O)c1cccc(Br)c1 [Example 2, 3-bromo-N-[(1S,2S)-1-(hydroxymethyl)-2-methylbutyl]benzenesulfonamide] | 2.8 | 1 (1=non-toxic) |  |  |  |
| CC(c1ccccc1)C(CO)NS(=O)(=O)c1ccc(Br)cc1 (centres unmarked) [Example 35, 4-bromo-N-[-1-(hydroxymethyl)-2-phenylpropyl]benzenesulfonamide] | 2.4 | 1 (1=non-toxic) |  |  |  |
| CC[C@H](C)[C@@H](CO)NS(=O)(=O)c1ccc2ccccc2c1 [Example 13, N-[(1S,2S)-1-(hydroxymethyl)-2-methylbutyl]naphthalene-2-sulfonamide] | 1.8 | 1 (1=non-toxic) |  |  |  |
| CCCCC(O)[C@@H](NS(=O)(=O)c1ccc(Cl)cc1)[C@@H](C)CC (stereo partly drawn) [Example 169, 4-chloro-N-{(1S)-2-hydroxy-1-[(1S)-1-methylpropyl]hexyl}benzenesulfonamide] |  |  | 2.85 | 1 (1=non-toxic) |  |
| CCCCCC[C@@H](CC)[C@@H](CO)NS(=O)(=O)c1ccc(Cl)cc1 [Example 89, 4-chloro-N-[(1S,2R)-2-ethyl-1-(hydroxymethyl)octyl] benzenesulfonamide] |  |  |  |  | APPI Fold Increase (beta amyloid production; [3]): 22.4; APPI % of Example #98 (beta amyloid production; Conc 20 μg/ml): 97.9%; (%)APPI Toxicity (CHO-K1 cells; [4]): 1 (1=non-toxic) |
| CC[C@H](C)[C@H](NS(=O)(=O)c1ccccc1F)C(O)(CC)CC [Example 265, N-{(1S)-2-ethyl-2-hydroxy-1-[(1S)-1-methylpropyl]butyl}-2-fluorobenzenesulfonamide] |  |  | 1.78 | 1 (1=non-toxic) |  |
| CC[C@H](C)[C@@H](CO)N(Cc1ccc(Cl)cc1)S(=O)(=O)c1ccc(Cl)cc1 [Example 43, 4-chloro-N-(4-chlorobenzyl)-N-[(1S,2S)-1-(hydroxymethyl)-2-methylbutyl]benzenesulfonamide] | 5.1 | 1 (1=non-toxic) |  |  |  |
| CC[C@H](C)[C@H](NS(=O)(=O)c1ccccc1F)C(O)(c1ccccc1)c1ccccc1 [Example 263, 2-fluoro-N-{(1S,2 S)-1-[hydroxy (diphenyl)methyl]-2-methylbutyl}benzenesulfonamide] |  |  | 1.57 | 1 (1=non-toxic) |  |
| CC[C@H](C)[C@H](NS(=O)(=O)c1ccc(Br)cc1)C(O)C1CCCC1 (stereo partly drawn) [Example 146, 4-bromo-N-1-{(1S,2S)-1-[cyclopentyl(hydroxy)methyl]-2-methylbutyl}benzenesulfonamide] |  |  |  | 1 (1=non-toxic) | APPI Fold Increase (beta amyloid production; Conc 3 μg/ml, luciferase activity over diluent control): 1.53 fold; APPI % of Example #98 (beta amyloid production; Conc 3 μg/ml): 60.66%; APPI Fold Increase (beta amyloid production; [2]): 4.26 fold and 2.33 fold; APPI % of Example #98 (beta amyloid production; Conc 10 μg/ml): 166.6% and 92.64%; (%)APPI Toxicity (CHO-K1 cells; Conc 3 μg/ml): 1 (1=non-toxic) |
| CC[C@H](C)[C@H](NS(=O)(=O)c1ccc(F)cc1)C(O)(CC(C)C)CC(C)C [Example 240, 4-fluoro-N-{(1S)-2-hydroxy-2-isobutyl-4-methyl-1-[(1S)-1-methylpropyl]pentyl}benzenesulfonamide] |  |  | 3.82 | 1 (1=non-toxic) |  |
| CCCCCCC(O)[C@@H](NS(=O)(=O)c1cccc(Cl)c1)[C@@H](C)CC (stereo partly drawn) [Example 187, 3-chloro-N-{(1S)-2-hydroxy-1-[(1S)-1-methylpropyl]octyl}benzenesulfonamide] |  |  | 9.02 | 1 (1=non-toxic) |  |
| CCCCCCC(O)(CCCCCC)[C@@H](NS(=O)(=O)c1ccccc1F)[C@@H](C)CC [Example 261, 2-fluoro-N-{(1S)-2-hexyl-2-hydroxy-1-[(18)-1-methylpropyl]octyl}benzenesulfonamide] |  |  |  | 1 (1=non-toxic) | APPI Fold Increase (beta amyloid production; [2]): 3.5 fold; APPI % of Example #98 (beta amyloid production; Conc 10 μg/ml): 104.4% |
| CC[C@H](C)[C@H](NS(=O)(=O)c1ccc(Br)cc1)C(O)(c1ccc(Cl)cc1)c1ccc(Cl)cc1 [Example 218, N-{(1S,2S)-1-[bis(4-chlorophenyl) (hydroxy)methyl]-2-methylbutyl}-4-bromobenzenesulfonamide] |  |  | 1.55 | 1 (1=non-toxic) |  |
| O=S(=O)(NC(CO)(c1ccccc1)C1CCC1)c1ccc(Cl)cc1 (centres unmarked) [Example 125, 4-chloro-N-(1-cyclobutyl-2-hydroxy-1-phenylethyl)benzenesulfonamide] | 1.8 | 1 (1=non-toxic) |  |  |  |
